From US20240034761A1, “REGENERATION OF MAMMALIAN TISSUES USING SYNTHETIC IMMODULINS” (priority 2022, published 2024)
Marks after values point to notes of the source that are not given here. Square brackets hold non-standard residues; d marks the D form. Ends that are not written are not given here. Peptide text beside a SMILES is read from it.

Key:
[1] = test system: THP1-Dual monocyte reporter cell line; experiment: Adjuvant effect of helper molecules on immX3 peptide potency in THP1-Dual assay; assay type: cell-based, human
Description: (§1) Mammalian cell differentiation assays employed the THP1-Dual monocyte reporter cell line (Invivogen Inc, San Diego, CA) seeded at 2×10e5 cells per well in 96-well plates and cultured at 37 degrees C. in RPMI-1640 growth medium plus 10% fetal bovine serum and 1% penicillin/streptomycin. Cells were subsequently treated for 24 hours with 100 ng/ml Phorbol 12-myristate 13-acetate (PMA protocol; Cayman Chemical Company, Ann Arbor, MI). Peptide (0.33 uM or 0.66 uM, as indicated) was then added, and incubation continued for an additional 24 hours. Culture supernatants were assayed for CCL22. Plates with adherent cells were washed with PBS and assayed for immunoreactivity of surface markers such as CD169, Clec9a or Clec12a using fuorescent tag- or biotin-labeled anti-human antibodies purchased from Miltenyi Biotec (Auburn, CA) and the secondary detection reagent recommended by the manufacturer.
The THP1-Dual cell differentiation assay was carried out as described above in Example 2, using immX3 peptide (330 nM) in all samples plus the indicated helper or inhibitor molecule. Molecules were purched from Cayman Chemical Company (Ann Arbor, MI) or Sigma Chemical Company (St. Louis, MO). AU=arbitrary ELISA units. **p<0.01.

[2] = PIP-binding membrane assay (Membrane Lipid Strips); parameters: key: —: −−− no binding; +++ strong binding; details: 400 ng peptide
Description: N-terminally biotinylated versions of the peptides listed below were used in various assays listed in the examples. For the two types of phosphatidylinositon phosphate (PIP)-binding assays, imm1-imm6 peptides were used.
In the PIP-binding membrane assay, 400 ng of each peptide was bound to Membrane Lipid Strips (Catalog # P-6002, Echelon Biosciences, Salt Lake City, UT) and developed according to the manufacturer's instructions. Binding to PIPs was as follows (−−− no binding; +++ strong binding): […]

[3] = test system: THP1-Dual monocyte reporter cell line; experiment: THP1-Dual myeloid cell differentiation assay (PMA protocol); assay type: cell-based, human; details: PMA 24 h, then peptide 0.33 uM or 0.66 uM 24 h; for CD169+ (AU): relative to immX3AVD = 100; for CCL22: culture supernatant
Description: as §1

[4] = test system: C2C12 myoblastic cell line; experiment: C2C12 myoblast differentiation, creatine kinase; assay type: cell-based; details: 0.66 uM peptide, 96 hours; helper none; relative to immX3AVD = 100
Description: Differentiation assays employed the C2C12 myoblastic cell line (ATCC, Manassas, VA) seeded at 2×10e5 cells per well in 96-well plates and cultured at 37 degrees C. in DMEM growth medium plus 10% fetal bovine serum and 1% penicillin/streptomycin. For differentiation, 10% fetal bovine serum was replaced with 2% horse serum. 0.66 uM peptide was then added, and incubation continued for an additional 96 hours. Plates with adherent cells were washed with PBS, lysed with Lytic-M buffer (Sigma Chemical Company, St. Louis, MO) and the lysates were assayed for creatine kinase using a kit purchased from Bioassay Systems (Cat. #ECPK-100, Hayward, CA). Effects were visually confirmed with microscopy tracking myotube formation. Results were expressed as units per milliliter relative to the control immX3AVD peptide, and p values were also calculated and shown relative to control immX3AVD peptide (** p<0.05 versus immX3AVD control; avg±SD).

[5] = immX3 peptide 330 nM plus helper at 15 uM
[6] = immX3 peptide 330 nM plus helper at 2 uM
[7] = immX3 peptide 330 nM plus helper at 1 mM
[8] = immX3 peptide 330 nM plus helper at 0.1 ug/ml
[9] = immX3 peptide 330 nM plus helper at 1 ug/ml

With `Nc1nc2c(ncn2[C@@H]2O[C@@H]3COP(=O)(O)O[C@H]4[C@@H](O)[C@H](n5cnc6c(N)ncnc65)O[C@@H]4COP(=O)(O)O[C@@H]2[C@@H]3O)c(=O)[nH]1` [2′3′-cGAMP] the “CD169 (AU)” value [1, 5] was 168.5 ± 10.9** AU.

With `Sc1ncnc2nc[nH]c12` [6-mercaptopurine] the “CD169 (AU)” value [1, 6] was 104.9 ± 4.0 AU.

In the case of `C=C(c1ccc(C(=O)O)cc1)c1cc2c(cc1C)C(C)(C)CCC2(C)C` [Bexarotene], the “CD169 (AU)” value [1, 6] is reported as 96.9 ± 6.8 AU.

In the case of `Oc1ccc(C(c2c[nH]c3ccccc23)c2c[nH]c3ccccc23)cc1` [C-DIM8], the “CD169 (AU)” value [1, 6] is reported as 91.0 ± 24.8 AU.

For `Clc1ccc(C(c2c[nH]c3ccccc23)c2c[nH]c3ccccc23)cc1` [C-DIM12], the “CD169 (AU)” value [1, 6] was 119.0 ± 3.7** AU.

In the case of `C=C1/C(=C\C=C2/CCC[C@]3(C)[C@@H]([C@H](C)CCCC(C)(C)O)CC[C@@H]23)C[C@@H](O)C[C@@H]1O` [Calcitriol], the “CD169 (AU)” value [1, 6] is reported as 102.0 ± 11.3 AU.

For `O=C1CCc2cc(OCCCCc3nnnn3C3CCCCC3)ccc2N1` [Cilostazol], the “CD169 (AU)” value [1, 6] was 99.4 ± 27.7 AU.

In the case of `C[C@H]1C[C@H]2[C@@H]3CCC4=CC(=O)C=C[C@]4(C)[C@@]3(F)[C@@H](O)C[C@]2(C)[C@@]1(O)C(=O)CCl` [Clobetasol], the “CD169 (AU)” value [1, 6] is reported as 98.5 ± 5.5 AU.

In the case of `Nc1nc2c(ncn2[C@@H]2O[C@@H]3COP(=O)(O)O[C@H]4[C@@H](O)[C@H](n5cnc6c(=O)[nH]c(N)nc65)O[C@@H]4COP(=O)(O)O[C@H]3[C@H]2O)c(=O)[nH]1` [Cyclic-di-GMP], the “CD169 (AU)” value [1, 5] is reported as 142.9 ± 9.7** AU.

In the case of `CCCCCCCC(=O)c1c(O)cc(O)cc1CC(=O)OCC` [Cytosporone B], the “CD169 (AU)” value [1, 6] is reported as 120.3 ± 6.4** AU.

With `O=C(CO)[C@@H](O)[C@@H](O)[C@H](O)[C@H](O)CO` [D-mannoheptulose] the “CD169 (AU)” value ([1]; immX3 peptide 330 nM plus helper at 50 uM) was 140.8 ± 12.4** AU.

With `OC[C@H]1O[C@H](OC[C@H]2O[C@H](O[C@]3(CO)O[C@H](CO)[C@@H](O)[C@@H]3O)[C@H](O)[C@@H](O)[C@@H]2O)[C@H](O)[C@@H](O)[C@H]1O` [D-raffinose] the “CD169 (AU)” value [1, 7] was 111.9 ± 4.0** AU.

For `CN1C[C@H](C(=O)N[C@]2(C)O[C@@]3(O)[C@@H]4CCCN4C(=O)[C@H](Cc4ccccc4)N3C2=O)C[C@@H]2c3cccc4[nH]cc(c34)C[C@H]21` [Dihydroergotamine], the “CD169 (AU)” value [1, 6] was 170.3 ± 20.7** AU.

For `O=C(O)CC1CC(c2ccccc2)=NO1` (stereo not shown) [GIT27], the “CD169 (AU)” value [1, 6] was 166.5 ± 34.1** AU.

For `CN1c2ccc([N+](=O)[O-])cc2N=C(c2ccc(C(=O)O)cc2)c2cc3c(cc21)C(C)(C)CCC3(C)C` [HX531], the “CD169 (AU)” value [1, 6] was 90.4 ± 6.2 AU.

With `CN1c2ccccc2N=C(c2ccc(C(=O)O)cc2)c2cc3c(cc21)C(C)(C)CCC3(C)C` [HX600] the “CD169 (AU)” value [1, 6] was 110.5 ± 19.0 AU.

With `O=C(O)/C=C/C(=O)O` [L-fumarate] the “CD169 (AU)” value [1, 7] was 101.5 ± 7.3 AU.

For `C[C@H](O)C(=O)O` [L-lactate], the “CD169 (AU)” value ([1]; immX3 peptide 330 nM plus helper at 300 uM) was 121.1 ± 5.6** AU.

In the case of `Cc1cc2c(cc1C1(c3ccc(C(=O)O)cn3)CC1)C(C)(C)CCC2(C)C` [LG100268], the “CD169 (AU)” value [1, 6] is reported as 76.8 ± 11.9** AU.

With `O=C(NCc1ccco1)c1ccc2c(c1)N(Cc1c(F)cccc1Cl)C(=O)CS2` [Peptide G10, G10] the “CD169 (AU)” value [1, 6] was 143.4 ± 17.8** AU.

For `CC(=O)S[C@@H]1CC2=CC(=O)CC[C@]2(C)[C@H]2CC[C@@]3(C)[C@@H](CC[C@@]34CCC(=O)O4)[C@H]12` [Spironolactone], the “CD169 (AU)” value [1, 6] was 120.1 ± 10.5** AU.

In the case of `CC(=O)/C=C1\C(=O)N(C)c2ccccc21` [Supercinnamaldehyde], the “CD169 (AU)” value [1, 6] is reported as 159.7 ± 16.6** AU.

With `CSCC[C@H](NC(=O)[C@H](CO)NC(=O)[C@@H](NC(=O)[C@H](CCC(=O)O)NC(=O)[C@H](CS)NC(=O)[C@H](CCC(N)=O)NC(=O)[C@H](CCCNC(=N)N)NC(=O)[C@H](CO)NC(=O)[C@H](Cc1c[nH]cn1)NC(=O)[C@H](Cc1ccc(O)cc1)NC(=O)[C@H](Cc1ccccc1)NC(=O)CNC(=O)[C@H](CC(N)=O)NC(=O)[C@@H](N)CCCCN)[C@@H](C)O)C(=O)N[C@@H](CC(=O)O)C(=O)NCC(=O)N[C@@H](CCC(=O)O)C(=O)N[C@@H](C)C(=O)NCC(=O)N[C@@H](CC(C)C)C(=O)N[C@@H](CS)C(=O)N[C@@H](Cc1c[nH]c2ccccc12)C(=O)O` [imm1] (H-KNGFYHSRQCETSMDGEAGLCW-OH) the “Binding to Phosphatidylinositol” value [2] was “—”, the “Binding to PtdIns(3,4,5)P [PIP3]” value [2] was “—” and the “Binding to PtdIns(4)P [PIP1]” value [2] was “—”. For the same molecule, the “Binding to PtdIns(4,5)P [PIP2]” value [2] was “—” and the “CD169+ (AU)” value [3] was 3.1 ± 2.2 AU.

In the case of `CC(C)[C@H](NC(=O)[C@H](Cc1ccccc1)NC(=O)[C@H](Cc1c[nH]c2ccccc12)NC(=O)[C@H](CS)NC(=O)[C@H](Cc1ccccc1)NC(=O)CNC(=O)[C@H](CCCNC(=N)N)NC(=O)[C@H](CCCCN)NC(=O)[C@H](CCCNC(=N)N)NC(=O)CNC(=O)[C@H](CCCCN)NC(=O)[C@H](CO)NC(=O)[C@@H]1CCCN1C(=O)[C@H](CCCNC(=N)N)NC(=O)[C@H](CS)NC(=O)[C@H](CCC(N)=O)NC(=O)[C@H](CCCCN)NC(=O)[C@H](CCCCN)NC(=O)[C@H](CCCCN)NC(=O)[C@H](Cc1ccc(O)cc1)NC(=O)[C@H](Cc1ccccc1)NC(=O)CNC(=O)[C@H](CCCCN)NC(=O)[C@@H](N)CCCCN)C(=O)N[C@@H](CO)C(=O)O` [immX3FVS] (H-KKGFYKKKQCRPSKGRKRGFCWFVS-OH), the “CD169+ (AU)” value [3] is reported as 109.4 ± 4.5 AU and the CCL22 [3] is reported as 251.3 ± 5.8 pg/mL.

For GM-CSF, the “CD169 (AU)” value [1, 8] was 147.0 ± 15.3** AU.

In the case of HP-B-cyclodextrin, the “CD169 (AU)” value [1, 7] is reported as 121.1 ± 4.6** AU.

With Heparin the “CD169 (AU)” value [1, 9] was 34.1 ± 2.9** AU.

In the case of Holotransferrin [Holotransferrin (Tf)], the “CD169 (AU)” value ([1]; immX3 peptide 330 nM plus helper at 0.8 ug/ml) is reported as 126.8 ± 9.3** AU.

In the case of Hyaluronan [Hyaluronan(HMW-HA)], the “CD169 (AU)” value ([1]; immX3 peptide 330 nM plus helper at 0.6 ug/ml) is reported as 110.5 ± 10.2 AU.

For “KKGFYKKKQCRPSKGRKRGFCW(dA)VD (KKGFYKKKQCRPSKGRKRGFCW[dA]VD; cysteine pairing not given here) [immX3dAVD]”, the “CD169+ (AU)” value [3] was 104.3 ± 6.1 AU and the CCL22 [3] was 247.3 ± 16.1 pg/mL.

In the case of Leptin, the “CD169 (AU)” value [1, 9] is reported as 103.3 ± 11.6 AU.

For “NGLLKIKKGFYKKKQCRPSKGRKRGFCWAVD [immX3K4e + 1]”, the “CD169+ (AU)” value [3] was 128.4 ± 1.4 AU and the “Creatine Kinase Act.” value [4] was 178.4 ± 7.6** units per milliliter.

B1: CSF1 (protein, UniProt P09603 33-554, looked up)
Macrophage colony-stimulating …: EEVSEYCSHMIGSGHLQSLQRLIDSQMETSCQITFEFVDQEQLKDPVCYLKKAFLLVQDIMEDTMRFRDNTPNAIAIVQLQELSLRLKSCFTKDYEEHDKACVRTFYETPLQLLEKVKNVFNETKNLLDKDWNIFSKNCNNSFAECSSQDVVTKPDCNCLYPKAIPSSDPASVSPHQPLAPSMAPVAGLTWEDSEGTEGSSLLPGEQPLHTVDPGSAKQRPPRSTCQSFEPPETPVVKDSTIGGSPQPRPSVGAFNPGMEDILDSAMGTNWVPEEASGEASEIPVPQGTELSPSRPGGGSMQTEPARPSNFLSASSPLPASAKGQQPADVTGTALPRVGPVRPTGQDWNHTPQKTDHPSALLRDPPEPGSPRISSLRPQGLSNPSTLSAQPQLSRSHSSGSVLPLGELEGRRSTRDRRSPAEPEGGPASEGAARPLPRFNSVPLTDTGHERQSEGSFSPQLQESVFHLLVPSVILVLLAVGGLLFYRWRRRSHQEPQRADSPLEQPEGSPLTQDDRQVELPV
notes: Growth factor class
With B1 the “CD169 (AU)” value [1, 8] was 108.0 ± 32.3 AU.
